What was measured:
[1] = cited from earlier work
[2] = test system: Candida Albicans; assay: Franz cell bioassay, infected stratum corneum sheet, ATP assay; assay type: cell-based; conditions: after 2 hours incubation, FIG. 6
Protocol: The concentration of organisms in suspension was determined by fluorescence technique and a viable count used for confirmation by conducting an ATP assay where ATP in cell lysate represents a measure for viable cells. Therefore, the number of viable cells after exposure to drug can be measured for drug activity and was used for suspension method or skin model.
Stratum corneum (SC) sheets were infected with microorganisms in-vitro and a Franz cell was set-up to provide more realistic conditions than agar plate test
A sample of Candida albicans (5×10^7) was dried on the stratum corneum sheet and PBS used as receiver fluid. The Micap formulations were used at 10% aqueous suspensions and the Micap formulations and Pevaryl® were applied to the stratum corneum sheet and incubated at 37° C. The reaction was stopped after set time by dismantling the Franz cell and transferring the stratum corneum into TCA. ATP assay was then carried out on the cell lysate to determine activity.

Row | SMILES | logP(o/w) [1] | ATP remaining [2] [%]
1 | CCCCCCCC1CCCC(=O)O1 (racemic) [(+−)-5-dodecanolide] | 4.0 | 
2 | Fc1cc(F)cc(F)c1 [1,3,5-Trifluorobenzene] | 2.6 | 
3 | Fc1cccc(F)c1 [1,3-Difluorobenzene] | 2.4 | 
4 | C=CC(C)(CCC=C(C)C)OC(=O)CCCCC (centres unmarked) [1,5-dimethyl-1-vinyl-4-hexenyl hexanoate] | 4.5 | 
5 | CCCCCCCCN1CCCC1=O [1-octyl-2-pyrrolidinone] | 3.3 | 
6 | CC(C)c1ccccc1O [2-isopropyl phenol] | 2.7 | 
7 | CCCCC(C)C(=O)O (centres unmarked) [2-methyl hexanoic acid] | 2.1 | 
8 | CC(C)=CC(=O)OCCc1ccccc1 [2-phenylethyl 3-methyl-2-butenoate] | 2.7 | 
9 | Cc1cccc(I)c1 [3-Iodotoluene] | 3.7 | 
10 | CC(C)CCN [3-methyl butylamine] | 1.1 | 
11 | CCc1ccc(O)c(OC)c1 [4-ethyl-2-methoxy phenol] | 2.4 | 
12 | CCO [20% ethanol, ethanol] |  | 75
13 | CC/C=C\CCOC(=O)C(C)CC (centres unmarked) [(Z)-3-hexenyl 2-methylbutanoate] | 2.8 | 
14 | CC/C=C\CCOC(C)=O [(Z)-3-hexenyl acetate] | 1.5 | 
15 | CC/C=C\CCOC(=O)CCC [(Z)-3-hexenyl butanoate] | 2.4 | 
16 | CCCCCCCCCC [Decane] | 5.3 | 

Row | SMILES | logP(o/w) [1] | ATP remaining [2] [%]
17 | COC(=O)CCCCC(=O)OC [Dimethyl adipate] | 1.4 | 
18 | CCCCCCCO [Micap 1-Heptanol, 1-Heptanol] | 3.1 | 
19 | CCCCCC1CCCC(=O)O1 (centres unmarked) [Micap 5-decanolide, 5-decanolide] | 3.1 | 
20 | CCCCCCCCC [Nonane] | 4.8 | 
21 | CCCCCCCCCCCCCC [Tetradecane] | 7.2 | 
22 | CCCSSCCC [dipropyl disulfide] | 3.7 | 
23 | CCOC(=O)CC(C)C [ethyl 3-methylbutanoate] | 1.8 | 
24 | CC/C=C/CC(=O)OCC [ethyl (E)-3-hexenoate] | 1.7 | 
25 | CCCCCC(=O)OCC [ethyl hexanoate] | 2.3 | 
26 | CCCCCCCCC(=O)OCC [ethyl nonanoate] | 3.7 | 
27 | CCCCCC(C)=O [heptan-2-one] | 1.9 | 
28 | CCCCCCC(C)=O [octan-2-one] | 2.3 | 
29 | CCCCCCCCO [octanol] | 2.8 | 
30 | CCCCCCCCOC(C)=O [octyl acetate] | 3.3 | 
31 | CCCCCCCCOC(=O)C(C)C [octyl isobutyrate] | 4.2 | 
32 | CC(=O)OCC(COC(C)=O)OC(C)=O [triacetin] | 0.4 | 

Reference: US20080140036A1, “Antimicrobial Composition” (priority 2004, published 2008)
